Assay results published in patent publication US6316498A, “Fluorine-containing amino acid derivatives” (Taisho Pharmaceutical Co., Ltd., priority 1998, dated 2001).

Test system: Methamphetamine-induced Hyperactivity in Mice
Assay: Effect on Methamphetamine-induced Hyperactivity in Mice
Type: in vivo, male ICR-strain mice
Details: for Count (30-minute quantity of movement): 1 mg/kg methamphetamine; for Inhibition rate: vs group given solvent only; for ED50: Mus musculus, po, methamphetamine-induced hyperactivity; for inhibition of methamphetamine-induced hyperactivity (in words): ANOVA P<0.05, LY354740 except 0.01 mg/kg group
Procedure: (Effect on Methamphetamine-induced Hyperactivity in Mice)
11-12 male ICR-strain mice (body weights 23-32 g, Charles River Japan Inc.) were used for a group. The mice were housed in a transparent cylindrical measurement cage made of vinyl chloride (diameter 30 cm, height 30 cm) and were acclimated to their environment for 90 minutes.
Next, each of the compounds listed in Table 2 was orally administered to the mice, and 30 minutes later, 1 mg/kg methamphetamine was administered […]. 15 minutes later, the 30-minute quantity of movement of the mice was measured by a count, using an automatic movement measurement device (SCANET/SV-10, from Toyo Sangyo Co., Ltd.). Each listed compound was used suspended in a solvent consisting of 0.3% Tween 80 physiological saline solution.
The inhibition rate was determined from the count of the group of mice given solvent only and the count of the group of mice given each prescribed dosage of the compounds listed in Table 2, and the ED50 value was calculated. Statistical processing was done by analysis of variance (ANOVA), followed by Dunnet's test.

| SMILES | Count (30-minute quantity of movement) (0.01 mg/kg p.o.) | Inhibition rate (0.01 mg/kg p.o.) [%] | Count (30-minute quantity of movement) (0.1 mg/kg p.o.) | Inhibition rate (0.1 mg/kg p.o.) [%] | Count (30-minute quantity of movement) (1 mg/kg p.o.) | Inhibition rate (1 mg/kg p.o.) [%] | ED50 [mg/kg] | inhibition of methamphetamine-induced hyperactivity (in words) (p.o.) | inhibition effect relative to LY354740 for methamphetamine-induced hyperactivity (p.o., vs LY354740, from ED50 values) [times] | Count (30-minute quantity of movement) (10 mg/kg p.o.) | Inhibition rate (10 mg/kg p.o.) [%] |
| --- | --- | --- | --- | --- | --- | --- | --- | --- | --- | --- | --- |
| N[C@]1(C(=O)O)[C@H]2[C@@H](C[C@@H]1F)[C@@H]2C(=O)O [Comp. 1, (1S,2S,3S,5R,6S)-2-amino-3-fluorobicyclo[3.1.0]hexane-2,6-dicarboxylic acid] | 9512 ± 3005 | 19.6 | 4291 ± 1283 | 63.7 | 2353 ± 733 | 80.1 | 0.05 | A similar effect is also seen | 17.4 |  |  |
| N[C@@]1(C(=O)O)CC[C@H]2[C@H](C(=O)O)[C@H]21 [LY354740, (+) - (1S, 2S, 5R, 6S)-2-aminobicyclo[3.1.0]hexane-2,6-dicarboxylic acid] | 12000 ± 3216 | -18.8 | 6975 ± 1489 | 30.9 | 4534 ± 1116 | 55.1 | 0.87 | the methamphetamine-induced hyperactivity was inhibited in a dose-dependent manner |  | 3704 ± 1285 | 63.3 |
